Results as given in patent US20200368247A1, “CENICRIVIROC FOR THE TREATMENT OF FIBROSIS” (Tobira Therapeutics, Inc., priority 2014, published 2020).

Tests used:
[1] = Study 202 treatment-emergent laboratory abnormalities (DAIDS grade); format: in vivo, human; conditions: for AST increased, Grade 4 / Any Grade 3 or Grade 4 laboratory abnormality / Any Grade 4 laboratory abnormality / Aspartate aminotransferase (AST) increased (Grade 3 or 4) / CPK increased, Grade 4 / Creatine phosphokinase (CPK) increased (Grade 3 or 4) / Fibrinogen decreased (Grade 3 or 4) / Fibrinogen decreased, Grade 3 / Fibrinogen decreased, Grade 4 / Hemoglobin decreased (Grade 3 or 4) / Hemoglobin decreased, Grade 3 / Hemoglobin decreased, Grade 4 / Neutrophils decreased (Grade 3 or 4) / Neutrophils decreased, Grade 3 / Neutrophils decreased, Grade 4 / Phosphate decreased (Grade 3 or 4) / Phosphate decreased, Grade 3 / Phosphate decreased, Grade 4 / AST increased, Grade 3 / Any Grade 3 laboratory abnormality / CPK increased, Grade 3: through Week 48
Text: The 12th subject (Subject 42001) had 2 consecutive CPK elevations (Grade 3 followed by Grade 4) that returned to normal values while continuing treatment at a subsequent visit. None of the CPK elevations were associated with clinical symptoms; no subjects discontinued due to CPK elevations and there were no differences in AEs related to musculoskeletal disorders between the CVC and EFV arms.
The number of subjects with graded treatment-emergent laboratory abnormalities in selected liver parameters of interest is shown in Table 34. No Grade 4 ALT or AST elevations were observed. Except for one Grade 3 AST elevation, all ALT and AST elevations were Grade 1 or Grade 2. […] All abnormalities in bilirubin were Grade 1 or Grade 2. […]

HIV-1 = test: Study 202 Phase 2b, virologic response (HIV-1 RNA <50 copies/mL, FDA Snapshot), with FTC/TDF
Text: Subjects with a history of HIV-2, hepatitis B and/or C, cirrhosis of the liver or any known active or chronic active liver disease were excluded from the study.
The primary efficacy endpoint was virologic response at Week 24, defined as HIV-1 RNA <50 copies/mL using the FDA Snapshot Algorithm.

## CCCCOCCOc1ccc(-c2ccc3c(c2)/C=C(/C(=O)Nc2ccc([S@@+]([O-])Cc4cncn4CCC)cc2)CCCN3CC(C)C)cc1 [CVC, (S)-8-[4-(2-Butoxyethoxy)phenyl]-1-isobutyl-N-(4-{[(1-propyl-1H-imidazol-5-yl)methyl]sulfinyl}phenyl)-1,2,3,4-tetrahydro-1-benzazocine-5-carboxamide]
[1]; CVC 100 mg
  Worst Grade 4 laboratory abnormality, %: 5%
[1]; CVC 100 mg (N = 38)
  AST increased, Grade 4: 0 n (%)
  Any Grade 3 or Grade 4 laboratory abnormality: 7 (12%) n (%)
  Any Grade 4 laboratory abnormality: 3 (5%) n (%)
  Aspartate aminotransferase (AST) increased (Grade 3 or 4): 1 (2%) n (%)
  CPK increased, Grade 4: 1 (2%) n (%)
  Creatine phosphokinase (CPK) increased (Grade 3 or 4): 3 (5%) n (%)
  Fibrinogen decreased (Grade 3 or 4): 0 n (%)
  Fibrinogen decreased, Grade 3: 0 n (%)
  Fibrinogen decreased, Grade 4: 0 n (%)
  Hemoglobin decreased (Grade 3 or 4): 1 (2%) n (%)
  Hemoglobin decreased, Grade 3: 0 n (%)
  Hemoglobin decreased, Grade 4: 1 (2%) n (%)
  Neutrophils decreased (Grade 3 or 4): 2 (3%) n (%)
  Neutrophils decreased, Grade 3: 2 (3%) n (%)
  Neutrophils decreased, Grade 4: 0 n (%)
  Phosphate decreased (Grade 3 or 4): 2 (3%) n (%)
  Phosphate decreased, Grade 3: 2 (3%) n (%)
  Phosphate decreased, Grade 4: 0 n (%)
[1]; CVC 100 mg (N = 58)
  ALT abnormality, worst Grade 1: 4 (7%) n (%)
  ALT abnormality, worst Grade 2: 3 (5%) n (%)
  ALT abnormality, worst Grade 3: 0 n (%)
  ALT abnormality, worst Grade 4: 0 n (%)
  AST abnormality, worst Grade 1: 8 (14%) n (%)
  AST abnormality, worst Grade 2: 2 (3%) n (%)
  AST abnormality, worst Grade 3: 1 (2%) n (%)
  AST abnormality, worst Grade 4: 0 n (%)
  Alanine aminotransferase (ALT) abnormality, any worst grade: 7 (12%) n (%)
  Aspartate aminotransferase (AST) abnormality, any worst grade: 11 (19%) n (%)
  Bilirubin abnormality, any worst grade: 4 (7%) n (%)
  Bilirubin abnormality, worst Grade 1: 1 (2%) n (%)
  Bilirubin abnormality, worst Grade 2: 3 (5%) n (%)
  Bilirubin abnormality, worst Grade 3: 0 n (%)
  Bilirubin abnormality, worst Grade 4: 0 n (%)
  AST increased, Grade 3: 1 (2%) n (%)
  Any Grade 3 laboratory abnormality: 4 (7%) n (%)
  CPK increased, Grade 3: 2 (3%) n (%)
[1]; CVC 200 mg
  Any graded (Grade 1-4) laboratory abnormality, %: 96%
  Worst Grade 1 laboratory abnormality, %: 28%
  Worst Grade 2 laboratory abnormality, %: 47%
  Worst Grade 3 laboratory abnormality, %: 16%
  Worst Grade 4 laboratory abnormality, %: 5%
[1]; CVC 200 mg (N = 57)
  ALT abnormality, worst Grade 1: 6 (11%) n (%)
  ALT abnormality, worst Grade 2: 2 (4%) n (%)
  ALT abnormality, worst Grade 3: 0 n (%)
  ALT abnormality, worst Grade 4: 0 n (%)
  AST abnormality, worst Grade 1: 6 (11%) n (%)
  AST abnormality, worst Grade 2: 4 (7%) n (%)
  AST abnormality, worst Grade 3: 0 n (%)
  AST abnormality, worst Grade 4: 0 n (%)
  Alanine aminotransferase (ALT) abnormality, any worst grade: 8 (14%) n (%)
  Aspartate aminotransferase (AST) abnormality, any worst grade: 10 (18%) n (%)
  Bilirubin abnormality, any worst grade: 3 (5%) n (%)
  Bilirubin abnormality, worst Grade 1: 2 (4%) n (%)
  Bilirubin abnormality, worst Grade 2: 1 (2%) n (%)
  Bilirubin abnormality, worst Grade 3: 0 n (%)
  Bilirubin abnormality, worst Grade 4: 0 n (%)
  AST increased, Grade 3: 0 n (%)
  AST increased, Grade 4: 0 n (%)
  Any Grade 3 laboratory abnormality: 9 (16%) n (%)
  Any Grade 3 or Grade 4 laboratory abnormality: 12 (21%) n (%)
  Any Grade 4 laboratory abnormality: 3 (5%) n (%)
  Aspartate aminotransferase (AST) increased (Grade 3 or 4): 0 n (%)
  CPK increased, Grade 3: 6 (11%) n (%)
  CPK increased, Grade 4: 3 (5%) n (%)
  Creatine phosphokinase (CPK) increased (Grade 3 or 4): 9 (16%) n (%)
  Fibrinogen decreased (Grade 3 or 4): 2 (4%) n (%)
  Fibrinogen decreased, Grade 3: 2 (4%) n (%)
  Fibrinogen decreased, Grade 4: 0 n (%)
  Hemoglobin decreased (Grade 3 or 4): 0 n (%)
  Hemoglobin decreased, Grade 3: 0 n (%)
  Hemoglobin decreased, Grade 4: 0 n (%)
  Neutrophils decreased (Grade 3 or 4): 0 n (%)
  Neutrophils decreased, Grade 3: 0 n (%)
  Neutrophils decreased, Grade 4: 0 n (%)
  Phosphate decreased (Grade 3 or 4): 2 (4%) n (%)
  Phosphate decreased, Grade 3: 2 (4%) n (%)
  Phosphate decreased, Grade 4: 0 n (%)
HIV-1; CVC 100 mg arm
  subjects who prematurely discontinued the study: 29%
HIV-1; CVC 100 mg, Week 24
  subjects with virologic success (HIV-1 RNA <50 copies/mL): 76%
HIV-1; CVC 100 mg, Week 48
  subjects with virologic success (HIV-1 RNA <50 copies/mL): 68%
HIV-1; CVC 200 mg arm
  subjects who prematurely discontinued the study: 27%
HIV-1; CVC 200 mg, Week 24
  subjects with virologic success (HIV-1 RNA <50 copies/mL): 73%
HIV-1; CVC 200 mg, Week 48
  subjects with virologic success (HIV-1 RNA <50 copies/mL): 64%
